pIC50: −log10 of the molar value.
Target: a-glucosidase (Saccharomyces cerevisiae, UniProt P53341)
Type: biochemical
Conditions: 0.5 U/ml enzyme, 0.6 mM pNaGP, pH 6.8, 37° C.; for Inhibition rate %: compound at 250 μmol/L; for pIC50: gradient 500 to 7.8125 μmol/L
Procedure: An in vitro a-glucosidase activity assay was used for activity determination:
the compounds were weighed separately, and dissolved in dimethylsulfoxide (DMSO) to prepare 250 μmol/L of a reagent for a subsequent experiment. In short, a-glucosidase solution with a final concentration of 0.5 U/ml was reacted with 250 μmol/L of the compound and 0.6 mM of pNaGP solution in 0.1 mM, pH 6.8 phosphate buffer solution, to determine the inhibitory effect of the compound on an a-glucosidase conversion substrate. […] 250 μmol/L (10 μL) of the compound, enzyme solution (40 μL), and potassium phosphate buffer solution (100 μL) were pre-incubated in a 96-well plate at 37° C. for 10 min. Then, 50 μL of the substrate (pNaGP, 0.6 mM) was added to each micropore, it was incubated at 37° C. for 20 min, the absorbance was measured at 405 nm, and changes in enzyme activity were detected.
The formula for calculating the enzyme inhibitory activity of the compound tested was as follows:
The in vitro a-glucosidase activity assay was used for activity determination:
after the compounds were weighed separately, it was dissolved in DMSO to prepare 1 mmol/L of mother solution, and it was diluted in gradient to 500 μmol/L, 250 μmol/L, 125 μmol/L, 62.5 μmol/L, 31.25 μmol/L, 15.625 μmol/L and 7.8125 μmol/L. The different concentrations of the compounds (10 μL), 0.5 U/ml of enzyme solution (40 μL), and 0.1 mM, pH 6.8 phosphate buffer solution (100 μL) were pre-incubated in the 96-well plate at 37° C. for 10 min. Then, 50 μL of the substrate (pNaGP, 0.6 mM) was added to each micropore, it was incubated at 37° C. for 20 min, the absorbance was measured at 405 nm, and changes in enzyme activity were detected.

a-glucosidase, sequence (P53341 whole entry): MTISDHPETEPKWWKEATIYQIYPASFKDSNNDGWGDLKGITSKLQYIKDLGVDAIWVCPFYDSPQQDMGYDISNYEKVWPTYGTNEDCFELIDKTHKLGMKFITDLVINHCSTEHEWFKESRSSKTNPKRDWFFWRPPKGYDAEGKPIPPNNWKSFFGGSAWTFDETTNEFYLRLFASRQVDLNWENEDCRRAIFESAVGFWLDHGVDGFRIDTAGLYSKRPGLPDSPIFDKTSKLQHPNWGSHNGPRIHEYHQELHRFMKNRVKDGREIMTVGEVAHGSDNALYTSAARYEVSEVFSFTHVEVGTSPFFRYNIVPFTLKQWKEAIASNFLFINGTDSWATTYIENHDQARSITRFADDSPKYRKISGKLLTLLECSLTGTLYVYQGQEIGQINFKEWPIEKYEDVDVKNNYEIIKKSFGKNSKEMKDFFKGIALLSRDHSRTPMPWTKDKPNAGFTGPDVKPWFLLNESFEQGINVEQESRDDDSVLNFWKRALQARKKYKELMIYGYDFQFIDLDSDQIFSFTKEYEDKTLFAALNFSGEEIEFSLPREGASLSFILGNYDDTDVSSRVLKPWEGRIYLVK

Cc1ncc(CO)c2cc(C(=O)Nc3ccc(F)cc3)c(=Nc3cccc(C(F)(F)F)c3)oc12 [GFY-1]
Inhibition rate %: 23.042%

Cc1ncc(CO)c2cc(C(=O)Nc3ccc(F)cc3)c(=Nc3ccc(C(F)(F)F)cc3)oc12 [GFY-2]
Inhibition rate %: 13.832%

COc1cccc(N=c2oc3c(C)ncc(CO)c3cc2C(=O)Nc2ccc(F)cc2)c1 [GFY-4]
Inhibition rate %: 30.769%

Cc1ncc(CO)c2cc(C(=O)Nc3ccc(F)cc3)c(=Nc3cc(O)cc(CO)c3)oc12 [GFY-7]
Inhibition rate %: 45.254%

Cc1ncc(CO)c2cc(C(=O)Nc3ccc(F)c(F)c3)c(=Nc3cc(O)cc(CO)c3)oc12 [GFY-13]
Inhibition rate %: 13.978%

Cc1ncc(CO)c2cc(C(=O)Nc3ccc(F)c(Cl)c3)c(=Nc3cccc(CO)c3)oc12 [GFY-16]
Inhibition rate %: 89.604% | pIC50: 3.85

Cc1ncc(CO)c2cc(C(=O)Nc3ccc(F)c(Cl)c3)c(=Nc3cc(O)cc(CO)c3)oc12 [GFY-17]
Inhibition rate %: 31.045%

Cc1ncc(CO)c2cc(C(=O)Nc3ccc(F)cc3)c(=Nc3ccc(F)cc3)oc12 [GFY-20]
Inhibition rate %: 95.56% | pIC50: 4.70

Cc1ncc(CO)c2cc(C(=O)Nc3ccc(F)cc3)c(=Nc3cc(F)cc(F)c3)oc12 [GFY-21]
Inhibition rate %: 99.916% | pIC50: 4.37

Cc1ncc(CO)c2cc(C(=O)Nc3ccc(F)cc3)c(=Nc3ccc(F)c(F)c3)oc12 [GFY-22]
Inhibition rate %: 86.819% | pIC50: 4.43

Cc1ncc(CO)c2cc(C(=O)Nc3ccc(F)c(Cl)c3)c(=Nc3ccc(F)cc3)oc12 [GFY-23]
Inhibition rate %: 22.127%

Cc1ncc(CO)c2cc(C(=O)Nc3ccc(F)c(Cl)c3)c(=Nc3cc(F)cc(F)c3)oc12 [GFY-24]
Inhibition rate %: 99.833% | pIC50: 4.78

Cc1ncc(CO)c2cc(C(=O)Nc3ccc(F)c(Cl)c3)c(=Nc3ccc(F)c(F)c3)oc12 [GFY-25]
Inhibition rate %: 69.628%

Cc1ncc(CO)c2cc(C(=O)Nc3ccc(F)c(Cl)c3)c(=Nc3ccc(Cl)cc3)oc12 [GFY-26]
Inhibition rate %: 62.651%

Cc1ncc(CO)c2cc(C(=O)Nc3ccc(F)c(Cl)c3)c(=Nc3cc(Br)cc(Br)c3)oc12 [GFY-27]
Inhibition rate %: 56.656%

Cc1ncc(CO)c2cc(C(=O)Nc3ccc(F)c(Cl)c3)c(=Nc3ccc(Br)c(Br)c3)oc12 [GFY-28]
Inhibition rate %: 64.035%

Cc1ncc(CO)c2cc(C(=O)Nc3ccc(F)cc3)c(=Nc3cc(Br)cc(Br)c3)oc12 [GFY-29]
Inhibition rate %: 94.686% | pIC50: 4.57
